Measured values reported in US20200038486A1, “THERAPEUTIC MEDICINE FOR FIBROUS DISEASE” (StemRIM Inc., priority 2017, published 2020).
Where no end group is shown, it is not given here.

Test system: 129SV/colVII homo mice (epidermolysis bullosa model mice)
Test: Forelimb finger adhesion in epidermolysis bullosa model mice
Format: in vivo
Details: from the start of treatment to Week 8

Sequence: MGKGDPKKPRGKMSSYAFFVQTCREEHKKKHPDASVNFSEFSKK [HMGB1 peptide (1-44)]
- body weight compared with the vehicle group: no significant difference between the groups
